Data reported in ChEMBL document CHEMBL5465560, “Selectivity Literature for EUbOPEN Chemogenomic Library” (2024).
One block for each compound: values may come before it.

How the values were obtained:
[1] = molecular target: Serine/threonine-protein kinase N1 (Homo sapiens, UniProt Q16512); settings: at 10 µM
[2] = molecular target: Mitogen-activated protein kinase kinase kinase kinase 5 (Homo sapiens) (UniProt Q9Y4K4); assay: Selectivity interaction (KinomeScan (DiscoverX)) EUB0001049a MAP4K5; settings: at 1 µM
Chain of Mitogen-activated protein kinase kinase kinase kinase 5 (Homo sapiens) (Q9Y4K4 whole entry, looked up): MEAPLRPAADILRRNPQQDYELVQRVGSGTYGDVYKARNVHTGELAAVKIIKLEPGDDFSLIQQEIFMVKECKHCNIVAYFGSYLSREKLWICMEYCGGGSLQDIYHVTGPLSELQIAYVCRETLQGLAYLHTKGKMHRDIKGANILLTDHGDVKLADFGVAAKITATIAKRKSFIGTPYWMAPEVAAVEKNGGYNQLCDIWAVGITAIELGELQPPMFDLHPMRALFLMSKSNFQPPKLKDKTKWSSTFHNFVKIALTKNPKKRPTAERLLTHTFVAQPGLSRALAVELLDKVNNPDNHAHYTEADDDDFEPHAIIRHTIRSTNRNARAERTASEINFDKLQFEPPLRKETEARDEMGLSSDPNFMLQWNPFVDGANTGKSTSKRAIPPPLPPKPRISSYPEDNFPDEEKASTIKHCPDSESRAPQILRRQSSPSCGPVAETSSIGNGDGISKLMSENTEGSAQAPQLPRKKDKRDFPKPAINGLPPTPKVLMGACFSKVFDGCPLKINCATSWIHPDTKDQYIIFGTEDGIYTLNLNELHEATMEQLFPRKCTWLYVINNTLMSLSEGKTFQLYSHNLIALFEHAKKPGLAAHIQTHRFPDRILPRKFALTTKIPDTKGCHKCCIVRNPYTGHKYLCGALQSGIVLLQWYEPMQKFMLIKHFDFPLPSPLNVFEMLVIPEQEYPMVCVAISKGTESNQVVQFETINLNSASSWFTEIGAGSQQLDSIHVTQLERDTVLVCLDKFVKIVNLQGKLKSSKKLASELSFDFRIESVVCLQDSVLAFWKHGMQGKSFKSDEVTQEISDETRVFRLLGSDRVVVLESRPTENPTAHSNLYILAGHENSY

[3] = molecular target: Aurora kinase B (Homo sapiens, UniProt Q96GD4); assay: Selectivity interaction (Kinase panel (Enzyme activity assay)) EUB0000612a AURKB
Chain of Aurora kinase B (Q96GD4 whole entry): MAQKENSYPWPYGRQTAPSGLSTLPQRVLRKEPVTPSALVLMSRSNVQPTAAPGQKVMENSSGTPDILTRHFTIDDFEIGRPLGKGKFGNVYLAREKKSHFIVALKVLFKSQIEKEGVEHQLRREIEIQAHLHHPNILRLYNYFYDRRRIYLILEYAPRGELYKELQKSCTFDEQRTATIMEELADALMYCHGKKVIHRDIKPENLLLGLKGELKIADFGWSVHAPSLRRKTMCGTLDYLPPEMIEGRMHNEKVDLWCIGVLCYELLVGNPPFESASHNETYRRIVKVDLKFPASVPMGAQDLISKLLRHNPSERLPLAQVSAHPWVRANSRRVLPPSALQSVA

[4] = molecular target: T1, Ephrin type-B receptor 4 (Homo sapiens) (UniProt P54760); assay: Selectivity interaction (KinomeScan (DiscoverX)) EUB0000595a EPHB4; settings: at 10 µM
T1 sequence (whole entry): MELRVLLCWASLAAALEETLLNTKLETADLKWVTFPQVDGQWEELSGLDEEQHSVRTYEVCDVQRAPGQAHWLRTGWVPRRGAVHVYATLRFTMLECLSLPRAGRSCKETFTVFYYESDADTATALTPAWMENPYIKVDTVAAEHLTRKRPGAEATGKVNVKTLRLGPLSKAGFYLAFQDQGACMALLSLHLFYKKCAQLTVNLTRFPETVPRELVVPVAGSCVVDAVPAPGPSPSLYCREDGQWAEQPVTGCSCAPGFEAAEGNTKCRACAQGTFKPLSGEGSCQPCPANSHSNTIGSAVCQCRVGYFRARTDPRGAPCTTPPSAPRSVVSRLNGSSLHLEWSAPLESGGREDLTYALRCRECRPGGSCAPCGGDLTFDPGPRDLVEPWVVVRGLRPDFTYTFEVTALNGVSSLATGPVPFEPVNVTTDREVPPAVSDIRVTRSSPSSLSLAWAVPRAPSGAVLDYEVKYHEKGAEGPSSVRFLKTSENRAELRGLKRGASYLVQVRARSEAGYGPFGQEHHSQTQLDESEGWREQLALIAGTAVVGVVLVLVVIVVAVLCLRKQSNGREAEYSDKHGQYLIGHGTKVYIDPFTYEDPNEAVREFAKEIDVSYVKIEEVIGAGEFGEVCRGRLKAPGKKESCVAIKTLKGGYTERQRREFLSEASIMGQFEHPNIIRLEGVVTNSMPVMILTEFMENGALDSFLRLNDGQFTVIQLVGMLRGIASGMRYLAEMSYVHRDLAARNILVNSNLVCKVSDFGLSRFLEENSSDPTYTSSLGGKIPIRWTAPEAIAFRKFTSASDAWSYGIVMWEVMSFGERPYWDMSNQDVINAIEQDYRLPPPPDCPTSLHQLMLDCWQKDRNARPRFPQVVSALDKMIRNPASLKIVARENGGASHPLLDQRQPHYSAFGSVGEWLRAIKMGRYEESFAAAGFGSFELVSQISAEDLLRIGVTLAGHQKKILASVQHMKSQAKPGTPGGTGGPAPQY

[5] = molecular target: Glycogen synthase kinase-3 alpha (Homo sapiens, UniProt P49840); assay: Selectivity interaction (KinomeScan (DiscoverX)) EUB0000595a GSK3A; settings: at 10 µM
Chain of Glycogen synthase kinase-3 alpha (P49840 2-483 limits assumed): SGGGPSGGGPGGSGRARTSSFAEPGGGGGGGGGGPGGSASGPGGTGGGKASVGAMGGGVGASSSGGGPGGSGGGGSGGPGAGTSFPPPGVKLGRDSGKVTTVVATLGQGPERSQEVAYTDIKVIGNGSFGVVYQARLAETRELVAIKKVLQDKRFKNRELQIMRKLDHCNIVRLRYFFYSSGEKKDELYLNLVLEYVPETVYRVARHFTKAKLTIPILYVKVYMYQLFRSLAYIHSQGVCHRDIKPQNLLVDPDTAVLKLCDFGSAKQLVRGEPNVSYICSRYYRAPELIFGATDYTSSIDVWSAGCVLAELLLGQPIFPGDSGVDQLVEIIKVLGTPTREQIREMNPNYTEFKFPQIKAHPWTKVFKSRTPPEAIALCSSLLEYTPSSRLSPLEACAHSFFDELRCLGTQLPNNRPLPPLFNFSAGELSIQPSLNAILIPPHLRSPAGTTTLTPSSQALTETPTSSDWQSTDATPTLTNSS

[6] = molecular target: T2, Serine/threonine-protein kinase 17B (Homo sapiens) (UniProt O94768); assay: Selectivity interaction (KinomeScan (DiscoverX)) EUB0001079a STK17B; settings: at 1 µM
T2 sequence (whole entry): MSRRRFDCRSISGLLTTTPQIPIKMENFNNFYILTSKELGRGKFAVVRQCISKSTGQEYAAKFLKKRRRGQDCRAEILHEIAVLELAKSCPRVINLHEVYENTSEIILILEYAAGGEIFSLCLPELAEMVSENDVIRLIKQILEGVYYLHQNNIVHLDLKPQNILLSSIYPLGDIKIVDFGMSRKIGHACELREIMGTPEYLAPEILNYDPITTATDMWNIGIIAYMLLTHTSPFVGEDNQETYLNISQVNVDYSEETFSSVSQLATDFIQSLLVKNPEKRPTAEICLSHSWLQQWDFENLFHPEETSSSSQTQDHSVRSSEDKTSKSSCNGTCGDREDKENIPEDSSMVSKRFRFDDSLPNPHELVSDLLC

[7] = molecular target: Casein kinase I isoform gamma-2 (Homo sapiens) (UniProt P78368); assay: Selectivity interaction (SelectScreen profiling (Invitrogen)) EUB0000607a CSNK1G2; settings: at 2 µM
Chain of Casein kinase I isoform gamma-2 (Homo sapiens) (P78368 whole entry, looked up, canonical isoform): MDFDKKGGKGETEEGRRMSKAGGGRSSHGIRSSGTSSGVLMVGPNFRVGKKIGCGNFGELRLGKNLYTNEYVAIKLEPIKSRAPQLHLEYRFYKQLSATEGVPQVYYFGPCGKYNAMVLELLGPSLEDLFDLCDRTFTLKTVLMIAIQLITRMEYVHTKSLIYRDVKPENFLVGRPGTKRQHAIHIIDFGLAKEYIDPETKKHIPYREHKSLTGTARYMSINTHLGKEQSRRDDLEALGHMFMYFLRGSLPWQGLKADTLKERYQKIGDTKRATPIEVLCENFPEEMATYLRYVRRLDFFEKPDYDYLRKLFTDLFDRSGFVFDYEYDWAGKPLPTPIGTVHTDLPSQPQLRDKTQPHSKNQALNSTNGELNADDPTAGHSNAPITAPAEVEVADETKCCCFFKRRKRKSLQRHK

[8] = molecular target: T3, Serine/threonine-protein kinase Nek1 (Homo sapiens) (UniProt Q96PY6); assay: Selectivity interaction (KinomeScan (DiscoverX)) EUB0000666a NEK1; settings: at 10 µM
T3 sequence (whole entry): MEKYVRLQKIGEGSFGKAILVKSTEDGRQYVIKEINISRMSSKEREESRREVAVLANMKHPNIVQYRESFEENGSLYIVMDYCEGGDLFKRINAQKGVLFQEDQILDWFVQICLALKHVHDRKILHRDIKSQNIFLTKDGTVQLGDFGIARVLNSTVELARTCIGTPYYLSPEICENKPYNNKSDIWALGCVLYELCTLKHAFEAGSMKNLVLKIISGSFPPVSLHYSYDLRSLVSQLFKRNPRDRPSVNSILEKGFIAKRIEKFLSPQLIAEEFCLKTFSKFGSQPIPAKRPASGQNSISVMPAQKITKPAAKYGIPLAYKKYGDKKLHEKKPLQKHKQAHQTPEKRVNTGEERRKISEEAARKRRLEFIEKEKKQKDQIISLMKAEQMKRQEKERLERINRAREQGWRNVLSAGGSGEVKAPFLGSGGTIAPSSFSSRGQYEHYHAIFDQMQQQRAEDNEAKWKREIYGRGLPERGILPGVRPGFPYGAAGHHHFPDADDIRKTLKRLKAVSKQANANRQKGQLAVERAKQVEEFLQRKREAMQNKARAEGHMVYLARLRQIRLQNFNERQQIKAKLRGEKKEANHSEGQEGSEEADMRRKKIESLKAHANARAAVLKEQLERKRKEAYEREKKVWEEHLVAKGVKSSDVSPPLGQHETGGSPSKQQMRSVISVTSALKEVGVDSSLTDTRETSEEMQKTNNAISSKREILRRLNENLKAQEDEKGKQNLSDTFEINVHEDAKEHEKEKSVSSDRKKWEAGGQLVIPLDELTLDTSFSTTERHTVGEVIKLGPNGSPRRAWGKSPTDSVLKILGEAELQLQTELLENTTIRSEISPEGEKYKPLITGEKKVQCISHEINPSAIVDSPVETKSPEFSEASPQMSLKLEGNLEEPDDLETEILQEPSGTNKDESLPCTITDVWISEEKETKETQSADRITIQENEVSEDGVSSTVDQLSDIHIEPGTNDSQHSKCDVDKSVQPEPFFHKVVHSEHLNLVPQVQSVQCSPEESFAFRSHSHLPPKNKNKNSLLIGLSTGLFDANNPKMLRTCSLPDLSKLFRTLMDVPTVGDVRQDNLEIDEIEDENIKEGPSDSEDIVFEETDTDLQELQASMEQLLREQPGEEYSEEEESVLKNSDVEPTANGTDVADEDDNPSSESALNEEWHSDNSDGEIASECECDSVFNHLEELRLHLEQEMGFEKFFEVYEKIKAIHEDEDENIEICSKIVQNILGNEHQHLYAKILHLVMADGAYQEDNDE

Chain of Serine/threonine-protein kinase N1 (Q16512 2-942 limits assumed): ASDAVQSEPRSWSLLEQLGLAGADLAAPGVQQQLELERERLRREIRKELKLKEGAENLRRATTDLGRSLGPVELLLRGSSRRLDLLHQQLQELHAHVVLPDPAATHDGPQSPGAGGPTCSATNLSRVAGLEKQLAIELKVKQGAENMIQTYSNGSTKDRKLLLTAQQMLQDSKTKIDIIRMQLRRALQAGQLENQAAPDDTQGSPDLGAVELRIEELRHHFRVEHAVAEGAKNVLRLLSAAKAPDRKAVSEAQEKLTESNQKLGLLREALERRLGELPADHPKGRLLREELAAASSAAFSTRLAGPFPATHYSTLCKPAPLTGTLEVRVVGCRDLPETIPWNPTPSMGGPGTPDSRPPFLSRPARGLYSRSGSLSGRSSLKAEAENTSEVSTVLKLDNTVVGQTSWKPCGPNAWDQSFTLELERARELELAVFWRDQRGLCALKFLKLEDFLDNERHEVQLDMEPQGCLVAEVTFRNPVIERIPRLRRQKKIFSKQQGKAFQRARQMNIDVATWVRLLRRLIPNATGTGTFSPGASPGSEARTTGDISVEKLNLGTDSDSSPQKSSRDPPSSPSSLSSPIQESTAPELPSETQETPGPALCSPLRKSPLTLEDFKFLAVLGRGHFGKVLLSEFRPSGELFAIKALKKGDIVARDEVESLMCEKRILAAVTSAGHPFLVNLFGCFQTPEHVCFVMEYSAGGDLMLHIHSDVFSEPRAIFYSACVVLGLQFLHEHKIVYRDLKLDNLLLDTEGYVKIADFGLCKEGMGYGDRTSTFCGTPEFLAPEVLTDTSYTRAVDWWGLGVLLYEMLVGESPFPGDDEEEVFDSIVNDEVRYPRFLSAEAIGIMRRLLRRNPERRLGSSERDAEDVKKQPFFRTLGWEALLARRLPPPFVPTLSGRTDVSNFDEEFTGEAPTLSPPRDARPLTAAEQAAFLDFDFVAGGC

SMILES: Cc1cc([C@@H](C)Nc2ccccc2C(=O)O)c2nc(N3CCOCC3)cc(=O)n2c1 [AZD-6482]
% of control [1]: 100%

SMILES: COc1cc(Nc2nc(C)cc(-c3cnn4nc(OC)ccc34)n2)cc(C(F)(F)F)c1
% of control [2]: 94%

IC50 [3]: > 10 µM
SMILES: CCc1cccc(CC)c1NC(=O)c1nn(C)c2c1CCc1cnc(Nc3ccc(C(=O)NC4CCN(C)CC4)cc3OC(F)(F)F)nc1-2

SMILES: COCC(=O)NC/C=C/c1ccc2ncnc(Nc3ccc(Oc4ccc(C)nc4)c(C)c3)c2c1 [CP-724714]
% of control [4]: 95%
% of control [5]: 100%

SMILES: Nc1cnc(N2CCc3cc(S(=O)(=O)Nc4c(F)cc(Cl)cc4F)cc(N4CCCC4=O)c32)nc1 [TP-020n]
% of control [6]: 100%

SMILES: CNC(=O)Nc1ccc(-c2nc(N3CC4CCC(C3)O4)c3cnn(C4CCC5(CC4)OCCO5)c3n2)cc1
% of inhibition [7]: -6%

SMILES: O=C(NOC[C@H](O)CO)c1ccc(F)c(F)c1Nc1ccc(I)cc1F
% of control [8]: 98%
